Measured values published in patent US10544154B2, “Opioid receptor antagonist prodrugs” (Nirsum Laboratories, Inc., priority 2017, dated 2020).
Entries after “also recorded” stand apart in the source; their conditions may differ.

Test: Clinical observations for dogs in pharmacokinetic studies
Format: in vivo, Beagle dogs
Details: 48 mg/kg
Method: Weight monitoring was done every week.
The dose formulation (concentration—400 mg base equivalents/ml in sesame oil+1% benzyl alcohol, unless otherwise specified) was administered via deep intramuscularly (unless otherwise specified). The injection vehicle was also dosed via deep intramuscular route (unless otherwise specified) on contralateral site of each animal at study initiation. The animals were sedated with Propofol at 6 mg/kg via IV administration. Following sedation hair was carefully removed from around the injection site and the area gently cleaned. Care will be taken to avoid irritating skin during shaving and cleaning the injection site. Then dogs will be dosed with deep IM administration. At least 2.5 cm depth from the surface into the central aspect of the quadriceps or biceps femoris muscle, by angling the needle toward the femur. If the needle hits the femur, simply draws back slightly and then inject. The dose volume will be determined by the animals' body weight collected on the morning of dosing day. For repeated administration, the injection sites may be rotated to minimize tissue injury.

[1] = dog D1502 (third dog, c6), 96 hr
[2] = dog D1502 (third dog, c6), 120 hr
[3] = dog D1502 (third dog, c6), 144 hr
[4] = dog D1502 (third dog, c6), 192 hr
[5] = dog D1502 (third dog, c6), 216 hr

C=C1CC[C@@]2(O)C3Cc4ccc(OCOC(=O)OCCCCCCCCCC)c5c4[C@@]2(CCN3CC2CC2)[C@H]1O5 [Compound 35, (((4aS,7aS,12bS)-3-(cyclopropylmethyl)-4a-hydroxy-7-methylene-2,3,4,4a,5,6,7,7a-octahydro-1H-4,12-methanobenzofuro[3,2-e]isoquinolin-9-yl)oxy)methyl decyl carbonate]
Clinical observation, R-TA (dog D1501, 24 hr): Red spots at groin
Clinical observation, R-TA (dog D1501, 48 hr): Red spots at groin
BT (dog D1501, 72 hr): at groin/BT: 39.1 °C
Clinical observation, R-TA (dog D1501, 72 hr): Swelling; also recorded: Red spots
BT (dog D1501, 96 hr): at groin/BT: 39.0 °C
Clinical observation, R-TA (dog D1501, 96 hr): Swelling; also recorded: Red spots
BT (dog D1501, 120 hr): at groin/BT: 39.1 °C
Clinical observation, R-TA (dog D1501, 120 hr): Swelling; also recorded: Red spots
BT (dog D1501, 144 hr): groin/BT: 38.7 °C
BT (dog D1501, 192 hr): groin/BT: 38.2 °C
BT (dog D1501, 216 hr): groin/BT: 38.6 °C
Clinical observation, R-TA (dog D1501, 216 hr): redness/Red spots at
BT (dog D1501, 240 hr): groin/BT: 38.2 °C
Clinical observation, R-TA (dog D1501, 240 hr): induration
BT (dog D1501, 264 hr): groin/BT: 38.0 °C
Clinical observation, R-TA (dog D1501, 264 hr): induration
BT (dog D1501, 288 hr): groin/BT: 38.4 °C
Clinical observation, R-TA (dog D1501, 288 hr): induration
BT (dog D1501, […]): groin/BT: 38.9 °C
Clinical observation, R-TA (dog D1501, day 13): induration
Clinical observation, R-TA (dog D1501, day 14): induration
Clinical observation, R-TA (dog D1501, day 15): induration
Clinical observation, R-TA (dog D1501, day 16): induration
Clinical observation, R-TA (dog D1501, day 17): induration
Clinical observation, R-TA (dog D1501, day 18): induration
Clinical observation, R-TA (dog D1502 (third dog, c6), 24 hr): Slight swelling/red
Clinical observation, R-TA (dog D1502 (third dog, c6), 48 hr): Slight swelling/red
BT (dog D1502 (third dog, c6), 72 hr): leg/BT: 39.3 °C
BT [1]: leg/BT: 39.3 °C
Clinical observation, R-TA [1]: induration and red
BT [2]: BT: 39.4 °C
Clinical observation, R-TA [2]: induration and red
BT [3]: BT: 39.0 °C
Clinical observation, R-TA [3]: induration and red
BT [4]: at calf/BT: 39.2 °C
Clinical observation, R-TA [4]: Obvious swelling
BT [5]: calf/BT: 39.2 °C
Clinical observation, R-TA [5]: red spot
BT (dog D1502 (third dog, c6), 240 hr): calf/BT: 38.9 °C
BT (dog D1502 (third dog, c6), 264 hr): 38.7 °C
BT (dog D1502 (third dog, c6), 288 hr): 38.7 °C
BT (dog D1502 (third dog, c6), […]): at calf/BT: 39.3 °C
Clinical observation, R-TA (dog D1502 (third dog, c6), day 20): Not obvious
BT (dog D1502, 72 hr): 39.6 °C
Clinical observation, R-TA (dog D1502, 72 hr): red
BT (dog D1502, 96 hr): 38.9 °C
BT (dog D1502, 120 hr): 39.6 °C
BT (dog D1502, 144 hr): 38.9 °C
Clinical observation, R-TA (dog D1502, 144 hr): redness
BT (dog D1502, 192 hr): BT: 38.7 °C
BT (dog D1502, 216 hr): BT: 39.2 °C
BT (dog D1502, 240 hr): BT: 38.6 °C
BT (dog D1502, 264 hr): BT: 38.4 °C
BT (dog D1502, 288 hr): BT: 38.6 °C
BT (dog D1502, […]): 39.9 °C
